Measurements published in patent US20120121692A1, “COMPOUNDS AND COMPOSITIONS COMPRISING CDK INHIBITORS AND METHODS FOR TREATING CANCER” (SHANDONG UNIVERSITY, priority 2009, published 2012).

Tests used:
[1] = test system: Human Colon Carcinoma HCT116 xenograft; assay: In vivo human colon carcinoma HCT116 xenograft test; set-up: species or system BALB/cASlac-nu mice
Procedure: (E)-3-(2-Chlorophenyl)-1-(2-hydroxy-4,6-dimethoxy-3-(1,2,3,6-tetrahydropyridine-4-yl)phenyl)-2-propylene-1-one hydrochloride, B2, was dissolved in a pyrogen-free, sterile PBS solution containing 1% dimethyl sulfoxide (DMSO). For daily injections, a freshly prepared solution was stored at 4° C. Before injection the B2 solution was warmed up to 37° C. and vigorously agitated in a vortex. B2 was administered through intraperitoneal injection (i.p.), 2.5, or 7.5 mg/kg/d, 20 days.
The positive control animals received 5 mg/kg/d doxorubicin intraperitoneally (i.p.), and the blank group mice received PBS solution containing 1% DMSO i.p., 5 mL/kg/d.
Female BALB/cASlac-nu mice (SLAC LABORATORY ANIMAL, Shanghai), ages 4 to 5 weeks, were used in this procedure. Animals were maintained according to the guidelines established by the National Institutes of Health.
The Human Colon Carcinoma HCT116 were grown in RPMI-1640 medium with 10% fetal calf serum and L-glutamine, and the cells were maintained using standard tissue culture conditions.
For the production of s.c. tumors, 1×10^7 cells in 0.1 mL of medium without serum were inoculated in the right flank of mice. After the tumors were implanted and reached a palpable size, the mice were randomized into control and treatment groups (n=6)
Subcutaneous tumors were measured with caliper, and the weight of the animals recorded at least three times a week. Tumor volume was estimated from caliper measurements of two perpendicular dimensions of the tumor in millimeters using the formula:
Tumor Volume(mm^3)=length(mm)×width(mm)^2/2
Tumor Inhibition Ratio (%)=(the blank group tumor weight average−the treatment group tumor weight average)/the blank group tumor weight average×100
Relative Tumor Volume (RTV)=Vt/V0. V0: the tumor volume measured at the time of randomization; Vt: the tumor volume measured each time during the administration.
Relative Increment Ratio T/C (%)=the treatment group(T) RTV/the blank control group(C) RTV×100. T/C(%)>40: inefficacy; T/C(%)≦40, and P<0.05: utility.

[2] = test system: HCT116 cells; assay: MTT cytotoxicity screening, human colon cancer cell line HCT116; assay type: cell-based; details: Homo sapiens, HCT-116, 48 hrs incubation, absorbance 490 nm, primary screening, read-out: IC50
Procedure, shortened: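 HCT116 cells seeded at 2.5×10^4 cells/ml, treated 24 h later for 48 h with compounds in medium (final DMSO 0.1%-0.001% v/v); dose series 100 μM–1 μM or 10 μM–62.5 nM, primary screen at 100 and 10 μM. Viability read by MTT (4 h, 37° C), formazan dissolved in DMSO, absorbance 490 nm.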

COc1cc(OC)c(C2=CCNCC2)c(O)c1C(=O)/C=C/c1ccccc1Cl [Compound B2, (E)-3-(2-chlorophenyl)-1-(2-hydroxy-4,6-dimethoxy-3-(1,2,3,6-tetrahydropyridine-4-yl)phenyl)-2-propylene-1-one]
% inhibit. (tumor inhibition ratio by tumor weight) ([1]; 2.5 mg/kg/d × 20 d i.p.): 88.2%
RTV (relative tumor volume Vt/V0) ([1]; 2.5 mg/kg/d × 20 d i.p.): 2.86 ± 0.202
TIV (%) ([1]; 2.5 mg/kg/d × 20 d i.p.): 19.0%
Tumor wgt. ([1]; 2.5 mg/kg/d × 20 d i.p.): 0.041 ± 0.0093 g
Tumor vol. (mm^3) Final ([1]; 2.5 mg/kg/d × 20 d i.p.): 121 ± 78.2 mm^3
Tumor vol. (mm^3) Initial ([1]; 2.5 mg/kg/d × 20 d i.p.): 53 ± 28.0 mm^3
% inhibit. (tumor inhibition ratio by tumor weight) ([1]; 7.5 mg/kg/d × 20 d i.p.): −25.6%
RTV (relative tumor volume Vt/V0) ([1]; 7.5 mg/kg/d × 20 d i.p.): 12.57 ± 0.667
TIV (%) ([1]; 7.5 mg/kg/d × 20 d i.p.): 83.3%
Tumor wgt. ([1]; 7.5 mg/kg/d × 20 d i.p.): 0.437 ± 0.3105 g
Tumor vol. (mm^3) Final ([1]; 7.5 mg/kg/d × 20 d i.p.): 777 ± 459.5 mm^3
Tumor vol. (mm^3) Initial ([1]; 7.5 mg/kg/d × 20 d i.p.): 58 ± 39.7 mm^3
optimal T/C (relative increment ratio) ([1]; HCT116 xenografts, dosage of 2.5 mg/kg/day): 19.0%
toxicity during the administration ([1]; two B2 treatment groups, 2.5 or 7.5 mg/kg/d i.p., 20 days): no significant toxicity was found
IC50 [2]: 100 nM
